The test system of the assay is T1, Pleurotus ostreatus NRC 620 laccase.
T1 construct: gene pox2
The settings on record: pH 4.5; ABTS 0.025-3 mM; crude culture supernatant.

As a reminder, the Km is the concentration of substrate that gives half-maximal velocity.

Regarding `CCn1c(=NN=c2sc3cc(S(=O)(=O)O)ccc3n2CC)sc2cc(S(=O)(=O)O)ccc21` [ABTS, 2, 2´-azino-bis (3-ethylbenzothiazoline-6-sulphonic acid)], the Km was determined as 1.99 mM.
